Patent publication US9738902B2, “Modified PYR/PYL receptors activated by ligands” (priority 2013, dated 2017)

Experiments:
[1] = target: T1, PYR1 K59R F108E (Arabidopsis thaliana, UniProt O49686, F108E/K59R); test: Y2H Pocket Library Screen (HAB1, X-gal); type: cell-based
T1 construct: expressed in transfected cells; host or cells: S. cerevisiae Y190 yeast two-hybrid reporter strain
Protocol: (§1) The set of 475 mutant plasmids were individually transformed into the Y190 yeast two hybrid reporter strain co-transformed with pACT-HAB1, as previously described (Park et al., 2009). The yeast strains generated were arrayed into 96-well plates yielding what we refer to as the “pocket library”. The pocket library strains were spotted onto agar plates containing selective synthetic dextrose (minus Leu & Trp) medium that was supplemented with a single test compound at 100 μM. The pocket library strains were separately tested for responsiveness to the following compounds: dichlobenil, benzothiadiazole, mandipropamid, fludioxonil, and benoxacor. After incubating test plates at 30° C. for two days, colonies were chloroform lysed and stained to reveal β-galactosidase expression levels, using previously described methods (Park et al., 2009). Mutants displaying responsiveness to the test compound, if present, were identified by virtue of X-gal staining and then subjected to subsequent optimization efforts. Using this approach we identified mutations that conferred detectable sensitivity to the compounds tested (see entries labeled “Pocket Library Screens” in Table 1).

[2] = target: T2, PYR1 K59R F159I (Arabidopsis thaliana, UniProt O49686, F159I/K59R); test: Y2H Pocket Library Screen (HAB1, X-gal); type: cell-based
T2 construct: expressed in transfected cells; host or cells: S. cerevisiae Y190 two-hybrid reporter strain
T2 sequence (O49686 whole entry K59R/F159I): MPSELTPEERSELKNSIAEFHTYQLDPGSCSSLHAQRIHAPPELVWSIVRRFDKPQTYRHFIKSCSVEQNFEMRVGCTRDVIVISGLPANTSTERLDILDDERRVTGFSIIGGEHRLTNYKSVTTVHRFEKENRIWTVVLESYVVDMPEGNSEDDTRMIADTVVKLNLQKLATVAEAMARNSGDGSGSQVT
T2 sequence (Q9CAJ0 23-511, further chain): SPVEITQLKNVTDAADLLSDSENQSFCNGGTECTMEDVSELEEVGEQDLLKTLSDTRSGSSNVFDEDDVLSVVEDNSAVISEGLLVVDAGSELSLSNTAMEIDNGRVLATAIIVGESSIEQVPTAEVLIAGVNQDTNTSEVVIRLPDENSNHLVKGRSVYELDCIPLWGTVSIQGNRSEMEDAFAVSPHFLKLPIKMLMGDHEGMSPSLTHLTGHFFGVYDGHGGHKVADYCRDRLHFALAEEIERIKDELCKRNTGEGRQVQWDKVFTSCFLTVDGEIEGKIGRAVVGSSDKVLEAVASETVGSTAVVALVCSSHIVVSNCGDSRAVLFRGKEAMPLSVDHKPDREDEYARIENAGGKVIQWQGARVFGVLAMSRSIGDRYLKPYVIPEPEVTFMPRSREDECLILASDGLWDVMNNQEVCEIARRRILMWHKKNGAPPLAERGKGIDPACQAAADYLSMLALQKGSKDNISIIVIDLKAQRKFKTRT
Protocol: as §1

[3] = target: T3, PYR1 K59R F159L (Arabidopsis thaliana, UniProt O49686, F159L/K59R); test: Y2H Pocket Library Screen (HAB1, X-gal); type: cell-based
T3 construct: expressed in transfected cells; host or cells: S. cerevisiae Y190
T3 sequence (O49686 whole entry K59R/F159L): as the sequence (O49686 whole entry K59R/F159I) above, with I159L counted along it
T3 sequence (Q9CAJ0 23-511, further chain): as the sequence (Q9CAJ0 23-511, further chain) above
Protocol: as §1

[4] = target: T4, PYR1 K59R F159V (Arabidopsis thaliana, UniProt O49686, F159V/K59R); test: Y2H Pocket Library Screen (HAB1, X-gal); type: cell-based
T4 construct: expressed in transfected cells; host or cells: S. cerevisiae Y190
T4 sequence (O49686 whole entry K59R/F159V): as the sequence (O49686 whole entry K59R/F159I) above, with I159V counted along it
T4 sequence (Q9CAJ0 23-511, further chain): as the sequence (Q9CAJ0 23-511, further chain) above
Protocol: as §1

[5] = target: T5, PYR1 K59R F108Q S122G (Arabidopsis thaliana, UniProt O49686, F108Q/K59R/S122G); test: Y2H Combinatorial Mutagenesis Screen I (HAB1, X-gal); type: cell-based
T5 construct: expressed in transfected cells; host or cells: S. cerevisiae Y190 two-hybrid reporter strain
T5 sequence (O49686 whole entry K59R/F108Q/S122G): as the sequence (O49686 whole entry K59R/F159I) above, with F108Q, S122G, I159F counted along it
T5 sequence (Q9CAJ0 23-511 partner): as the sequence (Q9CAJ0 23-511, further chain) above
Text: (§2) This screening approach yielded mutants at ligand contacting residues that alter sensitivity to specific ligands. We reasoned that receptor sensitivity could be improved by systematically constructing combinations of the best mutant variants identified in the first round of screening. To test this, we constructed mutant combinations using the strongest mutations identified for mandipropamid, benzothiadiazole, benoxacor or fludioxonil sensitivity. The mutations selected for combinatorial mutagenesis are listed in bold type in Table 1; The mutant combinations were constructed using the QuickChange Lightning Multi Site-Directed PCR Mutagenesis kit (Agilent, USA) using pBD-PYR1^K59R template DNA and mutagenic primers, essentially as previously described (Mosquna et al., 2011). The mutant combinations were sequence validated, introduced into the pACT-HAB1 Y190 reporter strain and then tested for responsiveness to a range of compound concentrations (100, 50, 25, 10, 1, 0.2, 0.1 or 0 μM each test compound). These efforts yielded double mutant receptor variants with improved sensitivity for the 4 compound/receptor pairs examined (see entries labeled “Combinatorial Mutagenesis Screen I” in Table 1).

[6] = target: T6, PYR1 K59R F108I S122G (Arabidopsis thaliana, UniProt O49686, F108I/K59R/S122G); test: as above; type: cell-based
T6 construct: expressed in transfected cells; host or cells: S. cerevisiae Y190 two-hybrid reporter strain
T6 sequence (O49686 whole entry K59R/F108I/S122G): as the sequence (O49686 whole entry K59R/F159I) above, with F108I, S122G, I159F counted along it
T6 sequence (Q9CAJ0 23-511 partner): as the sequence (Q9CAJ0 23-511, further chain) above
Text: as §2

[7] = test system: PYR1 Y58H K59R V81I F108A F159L; test: Y2H Combinatorial Mutagenesis II (HAB1, X-gal); type: cell-based, Arabidopsis
Text: Both of the above optimization experiments led to the identification of the following mutations that, when introduced one at a time, enhance the mandipropamid sensitivity of PYR1^K59R,F108A,S122G: Y58H, V81C, V81I, V81T, V83L, L87A, F159L, F159M, F159V, A160V and V164I. Given that these each enhance sensitivity on their own, we tested if combinations of these mutations might generate more sensitive receptors. Mutagenic primers for each of the mutations were designed and used simultaneously with the QuickChange Lightning Multi Site-Directed Mutagenesis kit (Agilent, USA) with PYR1^K59R,F108A,S122G template DNA. Individual clones were sequenced to identify bona fide combination mutants, which were transformed into the Y190 pACT-HAB1 yeast strain and assayed for mandipropamid sensitivity. These efforts led to the identification of several improved receptors (“Combinatorial Mutagenesis Screen II”, Table 1), including PYR1^Y58H,K59R,V81I,F108A,S122G,F159L, a hextuple mutant that we have named PYR1^MANDI. Yeast reporter strains expressing this mutant are responsive to mandipropamid concentrations as low as 2 nM (Table 1). Thus, the 5-step mutagenesis protocol we followed led to the construction of a mandipropamid responsive receptor with nanomolar sensitivity.

[8] = target: T7, 6×-His-GFP-PYR1^MANDI and GFP-HAB1 (Arabidopsis thaliana, UniProt O49686, F108A/F159L/K59R/S122G/V81I/Y58H); test: co-precipitation after transient co-expression in leaves; type: in vivo, Nicotiana benthamiana; settings: 50 μM mandipropamid, 20 hours
T7 construct: expressed in transfected cells; host or cells: Nicotiana benthamiana leaves, Agrobacterium tumefaciens GV3101 infiltration
T7 sequence (O49686 whole entry Y58H/K59R/V81I/F108A/S122G/F159L): as the sequence (O49686 whole entry K59R/F159I) above, with Y58H, V81I, F108A, S122G, I159L counted along it
T7 sequence (Q9CAJ0 23-511 partner): as the sequence (Q9CAJ0 23-511, further chain) above
Text: We therefore investigated if the mandipropamid promoted interaction between PYR1^MANDI and the PP2C HAB1 could be observed using similar experiments. To conduct these experiments PYR1^MANDI was cloned as a 6×-His-GFP fusion protein in the vector pEGAD (Cutler et al., 2000). HAB1 was cloned as a GFP fusion protein in the vector pEGAD. Both constructs were transformed into Agrobacterium tumefaciens (GV3101) and utilized in transient expression experiments. The Agrobacterium strains harboring the receptor, PP2C and the silencing suppressor p19 were mixed together in ratios corresponding to 0.1, 1.0 and 0.5 final OD600 units respectively. The mixture was infiltrated into two separate N. benthamiana leaves and 2 days later the leaves were treated with either 50 μM mandipropamid or mock solutions made in water containing 0.02% Silwet L-77. 20 hours later the leaves were homogenized in liquid nitrogen, re-suspended in an extraction buffer composed of 1×TBS, 0.1% NP-40, 1 mM DTT, 10% glycerol, and 1× plant protease inhibitor cocktail (Sigma, USA) and clarified by centrifugation. […] Both PYR1^MANDI and HAB1 were expressed as GFP fusion proteins and could therefore be detected with an anti-GFP antibody. The blots were probed with an anti-GFP monoclonal primary antibody and detected using an anti-mouse IgG-HP sheep secondary antibody using ECL (Amersham, USA) development.

[9] = test system: MDP1 and MDP2 transgenic lines (35S::PYR1^MANDI); test: thermal imaging of leaf temperature; type: in vivo, Arabidopsis; settings: 1 μM mandipropamid, 24 hours after first application

T1 sequence (O49686 whole entry K59R/F108E): as the sequence (O49686 whole entry K59R/F159I) above, with F108E, I159F counted along it
T1 sequence (Q9CAJ0 23-511 partner): as the sequence (Q9CAJ0 23-511, further chain) above

## N#Cc1c(Cl)cccc1Cl [Dichlobenil, dichlobenil]
[1]
  Threshold: 100 µM
[2]
  Threshold: 100 µM
[3]
  Threshold: 100 µM
[4]
  Threshold: 100 µM

## C#CCOc1ccc(CCNC(=O)C(OCC#C)c2ccc(Cl)cc2)cc1OC (stereo not shown) [Mandipropamid, mandipropamid]
[5]
  Threshold: 10 µM
[6]
  Threshold: 10 µM
[7]
  Threshold: 0.01 µM
[8]
  interaction of 6×-His-GFP-PYR1^MANDI and GFP-HAB1 in planta: mandipropamid-dependent physical interaction
[1]
  Threshold: 100 µM
[2]
  Threshold: 100 µM
[3]
  Threshold: 100 µM
[4]
  Threshold: 100 µM
[9]
  leaf temperature: increased leaf temperature
